Organism: Rattus norvegicus
Assay: DrugMatrix - Regimen: Daily Repeat
Assay type: toxicity, organism-based, Sprague-Dawley
Parameters: regimen Daily Repeat, gender Male, age 6-8 weeks
Details: in vivo, po, route oral GAVAGE, vehicle 100 % WATER; for ABSOLUTE BASOPHIL / ABSOLUTE EOSINOPHIL / ABSOLUTE LYMPHOCYTE / ABSOLUTE MONOCYTE / ABSOLUTE SEGMENTED NEUTROPHIL / BASOPHIL / EOSINOPHIL / ERYTHROCYTE COUNT / HEMATOCRIT / HEMOGLOBIN / LEUKOCYTE COUNT / LYMPHOCYTE / MEAN CORPUSCULAR HEMOGLOBIN / MEAN CORPUSCULAR HEMOGLOBIN CONCENTRATION / MEAN CORPUSCULAR VOLUME / MONOCYTE / NEUTROPHIL / NUCLEATED RED BLOOD CELLS / PLATELET COUNT: tissue Blood; for ALANINE AMINOTRANSFERASE / ALBUMIN / ALKALINE PHOSPHATASE / ASPARTATE AMINOTRANSFERASE / BLOOD UREA NITROGEN / CARBON DIOXIDE / CHLORIDE / CHOLESTEROL / CREATINE PHOSPHOKINASE / CREATININE / GLUCOSE / LACTATE DEHYDROGENASE / LIPASE / PHOSPHORUS / POTASSIUM / SODIUM / TOTAL BILIRUBIN / TOTAL PROTEIN / URIC ACID: tissue Plasma
[1] = 15 mg/kg, 120 h, dose level Low, time 5 day
[2] = 79 mg/kg, 72 h, dose level High, time 3 day
[3] = 79 mg/kg, 120 h, dose level High, time 5 day

## NNC(=O)c1ccncc1 [ISONIAZID]
[1]
  ABSOLUTE BASOPHIL: 0 CELLS/uL
  ABSOLUTE EOSINOPHIL: 0 CELLS/uL
  ABSOLUTE LYMPHOCYTE: 13245.33 CELLS/uL
  ABSOLUTE MONOCYTE: 507 CELLS/uL
  ABSOLUTE SEGMENTED NEUTROPHIL: 1614.33 CELLS/uL
  BASOPHIL: 0%
  EOSINOPHIL: 0%
  ERYTHROCYTE COUNT: 5.42 x10E6/uL
  HEMATOCRIT: 33.8%
  HEMOGLOBIN: 12.8 G/DL
  LEUKOCYTE COUNT: 15.37 x10E3/uL
  LYMPHOCYTE: 85%
  MEAN CORPUSCULAR HEMOGLOBIN: 23.67 pg
  MEAN CORPUSCULAR HEMOGLOBIN CONCENTRATION: 37.9 G/DL
  MEAN CORPUSCULAR VOLUME: 62.47 fL
  MONOCYTE: 3.33%
  NEUTROPHIL: 11.67%
  NUCLEATED RED BLOOD CELLS: 0 /100WBC
  PLATELET COUNT: 1239.67 x10E3/uL
  ALANINE AMINOTRANSFERASE: 47 u/L
  ALBUMIN: 4.33 G/DL
  ALKALINE PHOSPHATASE: 384.67 u/L
  ASPARTATE AMINOTRANSFERASE: 85 u/L
  BLOOD UREA NITROGEN: 16.67 mg/dL
  CARBON DIOXIDE: 23.67 mmol/L
  CHLORIDE: 102.67 MEQ/L
  CHOLESTEROL: 76 mg/dL
  CREATINE PHOSPHOKINASE: 246.67 u/L
  CREATININE: 0.47 mg/dL
  GLUCOSE: 188.33 mg/dL
  LACTATE DEHYDROGENASE: 93.67 u/L
  LIPASE: 11 u/L
  PHOSPHORUS: 11.47 mg/dL
  POTASSIUM: 5.97 MEQ/L
  SODIUM: 146 MEQ/L
  TOTAL BILIRUBIN: 0.23 mg/dL
  TOTAL PROTEIN: 6.3 G/DL
  URIC ACID: 2.17 mg/dL
[2]
  ABSOLUTE BASOPHIL: 0 CELLS/uL
  ABSOLUTE EOSINOPHIL: 46.33 CELLS/uL
  ABSOLUTE LYMPHOCYTE: 10642.67 CELLS/uL
  ABSOLUTE MONOCYTE: 65.33 CELLS/uL
  ABSOLUTE SEGMENTED NEUTROPHIL: 779 CELLS/uL
  BASOPHIL: 0%
  EOSINOPHIL: 0.33%
  ERYTHROCYTE COUNT: 6 x10E6/uL
  HEMATOCRIT: 38.67%
  HEMOGLOBIN: 14.03 G/DL
  LEUKOCYTE COUNT: 11.53 x10E3/uL
  LYMPHOCYTE: 91.67%
  MEAN CORPUSCULAR HEMOGLOBIN: 23.4 pg
  MEAN CORPUSCULAR HEMOGLOBIN CONCENTRATION: 36.3 G/DL
  MEAN CORPUSCULAR VOLUME: 64.47 fL
  MONOCYTE: 0.67%
  NEUTROPHIL: 7.33%
  NUCLEATED RED BLOOD CELLS: 0 /100WBC
  PLATELET COUNT: 1065.67 x10E3/uL
  ALANINE AMINOTRANSFERASE: 19 u/L
  ALBUMIN: 4.9 G/DL
  ALKALINE PHOSPHATASE: 349 u/L
  ASPARTATE AMINOTRANSFERASE: 74.33 u/L
  BLOOD UREA NITROGEN: 22.67 mg/dL
  CARBON DIOXIDE: 25.67 mmol/L
  CHLORIDE: 101.67 MEQ/L
  CHOLESTEROL: 80 mg/dL
  CREATINE PHOSPHOKINASE: 463.67 u/L
  CREATININE: 0.29 mg/dL
  GLUCOSE: 227.33 mg/dL
  LACTATE DEHYDROGENASE: 268 u/L
  LIPASE: 9.67 u/L
  PHOSPHORUS: 14.17 mg/dL
  POTASSIUM: 7.15 MEQ/L
  SODIUM: 146.23 MEQ/L
  TOTAL BILIRUBIN: 0.13 mg/dL
  TOTAL PROTEIN: 6.77 G/DL
  URIC ACID: 3.97 mg/dL
[3]
  ABSOLUTE BASOPHIL: 0 CELLS/uL
  ABSOLUTE EOSINOPHIL: 53 CELLS/uL
  ABSOLUTE LYMPHOCYTE: 13139.33 CELLS/uL
  ABSOLUTE MONOCYTE: 527.33 CELLS/uL
  ABSOLUTE SEGMENTED NEUTROPHIL: 647 CELLS/uL
  BASOPHIL: 0%
  EOSINOPHIL: 0.33%
  ERYTHROCYTE COUNT: 5.87 x10E6/uL
  HEMATOCRIT: 36.03%
  HEMOGLOBIN: 13.4 G/DL
  LEUKOCYTE COUNT: 14.37 x10E3/uL
  LYMPHOCYTE: 91.67%
  MEAN CORPUSCULAR HEMOGLOBIN: 22.8 pg
  MEAN CORPUSCULAR HEMOGLOBIN CONCENTRATION: 37.17 G/DL
  MEAN CORPUSCULAR VOLUME: 61.33 fL
  MONOCYTE: 3.67%
  NEUTROPHIL: 4.33%
  NUCLEATED RED BLOOD CELLS: 0.33 /100WBC
  PLATELET COUNT: 1389.67 x10E3/uL
  ALANINE AMINOTRANSFERASE: 28 u/L
  ALBUMIN: 4.37 G/DL
  ALKALINE PHOSPHATASE: 359.67 u/L
  ASPARTATE AMINOTRANSFERASE: 83.67 u/L
  BLOOD UREA NITROGEN: 17 mg/dL
  CARBON DIOXIDE: 24.67 mmol/L
  CHLORIDE: 102.33 MEQ/L
  CHOLESTEROL: 63.67 mg/dL
  CREATINE PHOSPHOKINASE: 505 u/L
  CREATININE: 0.21 mg/dL
  GLUCOSE: 173 mg/dL
  LACTATE DEHYDROGENASE: 177.33 u/L
  LIPASE: 10.33 u/L
  PHOSPHORUS: 12.07 mg/dL
  POTASSIUM: 6.62 MEQ/L
  SODIUM: 143.8 MEQ/L
  TOTAL BILIRUBIN: 0.17 mg/dL
  TOTAL PROTEIN: 6.3 G/DL
  URIC ACID: 2.17 mg/dL
